Reference: patent publication US12605354B2, “Azelaic acid esters in the treatment or prevention of dyslipidemia and associated conditions” (NEW FRONTIER LABS, LLC, priority 2020, dated 2026)
Entries after “also recorded” stand apart in the source; their conditions may differ. Marks after values point to notes of the source that are not given here.

Legend:
Assay type in all cases: in vivo, human
[1] = tested on: overweight to obese males; assay: 21-day oral DEA study: fasting insulin and OGTT insulin; details: for AUC insulin: 180-minute OGTT, in µU·min/mL (unit assumed); for AUC insulin / Fasting insulin: D21 post-treatment, 21 daily oral doses of 1 mg/kg, mean
From the text: (§1) Seventeen subjects were recruited by sampling a large population at risk for T2D (according to convenience sample; a statistical method of drawing representative data) to measure the changes in glucose, lipid and insulin measurements after an OGTT after the subjects had been treated for 21 days.
(§2) The subjects were overweight to obese males with body mass indices (BMIs) ranging from 27.2 to 43.6 kg/m^2, glycated hemoglobin A1c (HbA1c) of 5.0-6.2% and insulin levels of 8.8-52 μU/mL. The study was conducted by Clinical Trials of Texas, Inc. in San Antonio, TX. The cohort represented a population at risk for the development of T2D. The study was restricted to male participants to control for the variability of insulin sensitivity associated with the menstrual cycle. The subjects received 21 daily oral doses (“q1d”) of 1 mg/kg DEA. An OGTT, in which 75 grams of glucose in a total volume of 300 mL was administered orally to subjects, was performed on Day 0 and again on Day 21 and glucose measurements performed at −30, −5 and 0 min, insulin measurements at −30 and 0 min, and both glucose measurements and insulin measurements at 30, 60, 90, 120 and 180 minutes, where “0 min” is the time at which the glucose solution was administered. The 180-minute time point was selected to gain an early insight into the possible signal of drug action. Blood lipid levels (triglycerides, cholesterol, HDL, non-cholesterol HDL and LDL) were measured before the onset of treatment on Day 0 and again on Day 21. The error of the assays was <5% [36].
(§3) The results of the various marker measurements at Day 0 and Day 21 were compared using both the paired Students T-test and the Wilcoxon signed rank test. The results of both calculations are provided; the p-value from the paired Student T-test first, followed by the p-value from the Wilcoxon signed rank test. Generalized Estimating Equations and bootstrapping were used to verify the results generated with other methods. Fasting glucose was calculated as the average of the −30, −5, and 0-minute measurements and fasting insulin was calculated as the average of the −30- and 0-minute measurements. Spearman's correlation coefficient was calculated for the relationship between A1c and pre-treatment fasting plasma glucose versus post-treatment fasting plasma glucose. Area under the curve (AUC) was calculated over the 180-minute time span of the OGTT. All analyses were performed using the open language engine R 3.4.4. Statistical significance was at the α=0.05 level.

[2] = tested on: overweight to obese males; assay: 21-day oral DEA study: tolerability, adverse effects
Method: as §2

[3] = tested on: overweight to obese males; assay: 21-day oral DEA study: blood lipid levels and lipid ratios; details: for LDL/triglycerides / LDL/HDL / Triglycerides/HDL / Non-cholesterol HDL/HDL / Cholesterol, total/HDL / HDL cholesterol / LDL cholesterol / Non-cholesterol HDL / Triglycerides / Cholesterol, total: D21 post-treatment, 21 daily oral doses of 1 mg/kg, mean; for decrease of LDL/HDL: p=0.02; for Cholesterol/HDL, decrease / LDL/HDL, decrease: significant effect
From the text: as §1, §2, §3

CCOC(=O)CCCCCCCC(=O)OCC [DEA, diethyl azelate]
AUC insulin ([1]; All (n = 17), D0 24963): 26834
AUC insulin ([1]; FPG <100 mg/dL (n = 8), D0 22215): 27461
AUC insulin ([1]; FPG >100 mg/dL (n = 9), D0 27405): 26275
AUC insulin ([1]; High A1c (n = 9), D0 27055): 25988
AUC insulin ([1]; Low A1c (n = 8), D0 22609): 27785
Fasting insulin ([1]; All (n = 17), D0 26.082): 25.894 μU/mL
Fasting insulin ([1]; FPG <100 mg/dL (n = 8), D0 20.212): 20.95 μU/mL
Fasting insulin ([1]; FPG >100 mg/dL (n = 9), D0 31.3): 30.289 μU/mL
Fasting insulin ([1]; High A1c (n = 9), D0 30.411): 28.9 μU/mL
Fasting insulin ([1]; Low A1c (n = 8), D0 21.212): 22.512 μU/mL
decrease of fasting insulin ([1]; all 17 subjects, p=0.916, p=0.963): 0.7 μU/mL
decrease of median insulin area under the curve (AUC) ([1]; high A1c group, not statistically significant): 1663.5
decrease of fasting insulin ([1]; high A1c group, p=0.916, p=0.963): 0.84 μU/mL
decrease of fasting insulin ([1]; high fasting plasma glucose group, p=0.752, p=0.855): 2.97 μU/mL
increase of median insulin area under the curve (AUC) ([1]; low A1c group, not statistically significant): 3380.25
decrease of fasting insulin ([1]; remaining 16 subjects (subject #1 excluded), p=0.007, 0.009): 13.4%
average fasting insulin post-treatment ([1]; subject #1, outlier in the high A1c group, increased from 77.45 pre-treatment): 96.15 μU/mL
median decrease of fasting insulin ([1]; subset of 8 subjects (#2-4, 8-11, and 13)): 42.5%
decrease of mean fasting insulin ([1]; subset of 8 subjects (#2-4, 8-11, and 13), p=0.004, p=0.008): 37.8%
tolerability of daily oral DEA ([2]; 17 subjects, 21 daily oral doses of 1 mg/kg, 1 mg/kg): well tolerated by all study subjects
Hypoglycemia ([2]; 21-day study): Neither metformin nor DEA administration as presented herein induced hypoglycemia; also recorded: no effect
Side effects ([2]; 21-day study): mild transient diarrhea (1/17 subjects)
adverse effects ([2]; first week of treatment, no other adverse effects reported): only one subject experienced transient mild diarrhea
HDL, increase ([3]; 21-day study, group not stated): 8.7% increase
LDL/triglycerides ([3]; All (n = 17), D0 0.998): 0.893
LDL/HDL ([3]; All (n = 17), D0 3.442, P < 0.05): 3.201*
Triglycerides/HDL ([3]; All (n = 17), D0 3.761): 3.907
Non-cholesterol HDL/HDL ([3]; All (n = 17), D0 3.799, P < 0.05): 3.549*
Cholesterol, total/HDL ([3]; All (n = 17), D0 4.806, P < 0.05): 4.553*
HDL cholesterol ([3]; All (n = 17), D0 32.765): 34.412 mg/dL
LDL cholesterol ([3]; All (n = 17), D0 93.765): 89.765 mg/dL
Non-cholesterol HDL ([3]; All (n = 17), D0 117.412): 114.471 mg/dL
Triglycerides ([3]; All (n = 17), D0 118.588): 124 mg/dL
Cholesterol, total ([3]; All (n = 17), D0 150.118): 148.882 mg/dL
LDL/triglycerides ([3]; FPG <100 mg/dL (n = 8), D0 0.861): 0.887
LDL/HDL ([3]; FPG <100 mg/dL (n = 8), D0 3.082): 2.892
Non-cholesterol HDL/HDL ([3]; FPG <100 mg/dL (n = 8), D0 3.309): 3.098
Triglycerides/HDL ([3]; FPG <100 mg/dL (n = 8), D0 3.693): 3.521
Cholesterol, total/HDL ([3]; FPG <100 mg/dL (n = 8), D0 4.311): 4.089
HDL cholesterol ([3]; FPG <100 mg/dL (n = 8), D0 31.25): 31.5 mg/dL
LDL cholesterol ([3]; FPG <100 mg/dL (n = 8), D0 101): 90.75 mg/dL
Non-cholesterol HDL ([3]; FPG <100 mg/dL (n = 8), D0 111.778): 114.333 mg/dL
Triglycerides ([3]; FPG <100 mg/dL (n = 8), D0 122.889): 127.667 mg/dL
Cholesterol, total ([3]; FPG <100 mg/dL (n = 8), D0 154.875): 146.125 mg/dL
LDL/triglycerides ([3]; FPG >100 mg/dL (n = 9), D0 1.152): 0.9
Triglycerides/HDL ([3]; FPG >100 mg/dL (n = 9), D0 3.837): 4.342
LDL/HDL ([3]; FPG >100 mg/dL (n = 9), D0 3.847): 3.549
Non-cholesterol HDL/HDL ([3]; FPG >100 mg/dL (n = 9), D0 4.349): 4.057
Cholesterol, total/HDL ([3]; FPG >100 mg/dL (n = 9), D0 5.362): 5.075
HDL cholesterol ([3]; FPG >100 mg/dL (n = 9), D0 34.111): 37 mg/dL
LDL cholesterol ([3]; FPG >100 mg/dL (n = 9), D0 105): 103.444 mg/dL
Triglycerides ([3]; FPG >100 mg/dL (n = 9), D0 113.75): 119.875 mg/dL
Non-cholesterol HDL ([3]; FPG >100 mg/dL (n = 9), D0 123.75): 114.625 mg/dL
Cholesterol, total ([3]; FPG >100 mg/dL (n = 9), D0 145.889): 151.333 mg/dL
LDL/triglycerides ([3]; High A1c (n = 9), D0 0.954): 0.972
LDL/HDL ([3]; High A1c (n = 9), D0 3.173, P < 0.01): 2.862**
Non-cholesterol HDL/HDL ([3]; High A1c (n = 9), D0 3.446): 3.108
Triglycerides/HDL ([3]; High A1c (n = 9), D0 3.481): 3.096
Cholesterol, total/HDL ([3]; High A1c (n = 9), D0 4.456, P < 0.05): 4.1*
HDL cholesterol ([3]; High A1c (n = 9), D0 37.889): 41.222 mg/dL
LDL cholesterol ([3]; High A1c (n = 9), D0 105): 103.444 mg/dL
Triglycerides ([3]; High A1c (n = 9), D0 129): 125.222 mg/dL
Non-cholesterol HDL ([3]; High A1c (n = 9), D0 130.667): 128.444 mg/dL
Cholesterol, total ([3]; High A1c (n = 9), D0 168.444): 169.667 mg/dL
LDL/triglycerides ([3]; Low A1c (n = 8), D0 1.048): 0.804
LDL/HDL ([3]; Low A1c (n = 8), D0 3.744): 3.582
Triglycerides/HDL ([3]; Low A1c (n = 8), D0 4.076): 4.82
Non-cholesterol HDL/HDL ([3]; Low A1c (n = 8), D0 4.196): 4.046
Cholesterol, total/HDL ([3]; Low A1c (n = 8), D0 5.2): 5.062
HDL cholesterol ([3]; Low A1c (n = 8), D0 27): 26.75 mg/dL
LDL cholesterol ([3]; Low A1c (n = 8), D0 81.125): 74.375 mg/dL
Non-cholesterol HDL ([3]; Low A1c (n = 8), D0 102.5): 98.75 mg/dL
Triglycerides ([3]; Low A1c (n = 8), D0 106.875): 122.625 mg/dL
Cholesterol, total ([3]; Low A1c (n = 8), D0 129.5): 125.5 mg/dL
LDL, decrease ([3]; all): 4.3%
decrease of LDL/HDL ([3]; all 17 subjects, p=0.011): 6.46%
HDL and non-cholesterol HDL ([3]; all subjects): non-significantly affected by the treatment
Cholesterol/HDL, decrease ([3]; all): 5.4%
LDL/HDL, decrease ([3]; all): 6.5%
effect on total cholesterol, LDL, HDL, non-cholesterol HDL, and triglycerides considered singly ([3]; entire cohort): did not exert statistically significant effects on any endpoint considered singly
decrease of the ratio of total cholesterol/HDL ([3]; entire cohort, p=0.025, p=0.041): 5.36%
decrease of non-cholesterol HDL/HDL ratio ([3]; entire cohort, p=0.025, p=0.057): 6.6%
LDL, decrease ([3]; high A1c): 2%
decrease of median total cholesterol ([3]; high A1c group): 1 mg/dL
decrease of the ratio of triglycerides/HDL ([3]; high A1c group): 11%
ratio of triglycerides/HDL post-treatment ([3]; high A1c group, from 3.4): 3.0
LDL trend ([3]; high A1c group, less so in the low A1c group, normal <100 mg/dL): decreasing trend toward normal values
decrease of the ratio of total cholesterol/HDL ([3]; high A1c group, p=0.017, p=0.068): 7.99%
decrease of non-cholesterol HDL/HDL ratio ([3]; high A1c group, p=0.025, p=0.074): 9.8%
decrease of LDL/HDL ([3]; high A1c subjects, 21-day study (3 weeks), p=0.008): 9.8%
Cholesterol/HDL, decrease ([3]; high A1c): 8%
LDL/HDL, decrease ([3]; high A1c): 9.8%
elevated triglycerides post-treatment ([3]; including two high A1c subjects with abnormal triglycerides >150 before treatment): decreased post-treatment to normal levels in 8 subjects
increase of the ratio of triglycerides/HDL ([3]; low A1c): 15%
increase of median total cholesterol ([3]; low A1c group): 9 mg/dL
ratio of triglycerides/HDL post-treatment ([3]; low A1c, from 3.9): 4.6
abnormal total cholesterol (>200 mg/dL) post-treatment ([3]; two subjects in the high A1c group): decreased or returned to normal levels
